The source of these data is ChEMBL document CHEMBL6121048 (J Med Chem, 2025).

What all share (type): cell-based
For test [1], the target named is T1, Glutamate NMDA receptor; Grin1/Grin2b (Rattus norvegicus) (UniProt P35439+Q00960). Kind of test: Agonist activity at recombinant rat GluN1/GluN2B NMDA receptor expressed in xenopus laevis oocytes at 30 uM by two-electrode voltage-clamp method relative to control.
The target of test [2] is T2, Glutamate NMDA receptor; Grin1/Grin2a (Rattus norvegicus) (UniProt P35439+Q00959). The test can be described thus: Inhibition of recombinant rat GluN1/GluN2A NMDA receptor expressed in xenopus laevis oocytes in presence of glycine and L-glutamate by measuring maximum response by two-electrode voltage-clamp method relative to control.
Test [3] addresses T3, Glutamate NMDA receptor; Grin1/Grin2c (Rattus norvegicus) (UniProt P35439+Q00961). Kind of test: Inhibition of recombinant rat GluN1/GluN2C NMDA receptor expressed in xenopus laevis oocytes in presence of glycine and L-glutamate by measuring maximum response by two-electrode voltage-clamp method relative to control.
For test [4], the target named is T4, Glutamate NMDA receptor; Grin1/Grin2a (Rattus norvegicus, UniProt P35439+Q00959). The test can be described thus: Partial agonist activity at recombinant rat GluN1/GluN2A NMDA receptor expressed in xenopus laevis oocytes in presence of L-glutamate by two-electrode voltage-clamp method.
Test [5] deals with T5, Ionotropic glutamate receptor NMDA 1/2D (Rattus norvegicus) (UniProt P35439+Q62645). The test can be described thus: Inhibition of recombinant rat GluN1/GluN2D NMDA receptor expressed in xenopus laevis oocytes at 30 uM in presence of glycine and L-glutamate by measuring maximum response by two-electrode voltage-clamp method relative to control.
Test [6] deals with T6, Glutamate NMDA receptor; Grin1/Grin2c (Rattus norvegicus, UniProt P35439+Q00961). Kind of test: Inhibition of recombinant rat GluN1/GluN2C NMDA receptor expressed in xenopus laevis oocytes in presence of glycine and L-glutamate by two-electrode voltage-clamp method.
The target of test [7] is Glutamate NMDA receptor; Grin1/Grin2b (Rattus norvegicus, UniProt P35439+Q00960). Kind of test: Inhibition of recombinant rat GluN1/GluN2B NMDA receptor expressed in xenopus laevis oocytes in presence of glycine and L-glutamate by two-electrode voltage-clamp method.
For test [8], the target named is T6, Glutamate NMDA receptor; Grin1/Grin2c. Kind of test: Agonist activity at recombinant rat GluN1/GluN2C NMDA receptor expressed in xenopus laevis oocytes in presence of L-glutamate by two-electrode voltage-clamp method.
Test [9] has as its target T1, Glutamate NMDA receptor; Grin1/Grin2b (Rattus norvegicus). Kind of test: Inhibition of recombinant rat GluN1/GluN2B NMDA receptor expressed in xenopus laevis oocytes in presence of glycine and L-glutamate by measuring maximum response by two-electrode voltage-clamp method relative to control.
For test [10], the target named is T7, Ionotropic glutamate receptor NMDA 1/2D (Rattus norvegicus, UniProt P35439+Q62645). Kind of test: Partial agonist activity at recombinant rat GluN1/GluN2D NMDA receptor expressed in xenopus laevis oocytes in presence of L-glutamate by two-electrode voltage-clamp method.
Test [11] deals with T4, Glutamate NMDA receptor; Grin1/Grin2a. The test can be described thus: Inhibition of recombinant rat GluN1/GluN2A NMDA receptor expressed in xenopus laevis oocytes in presence of glycine and L-glutamate by two-electrode voltage-clamp method.
Test [12] addresses T5, Ionotropic glutamate receptor NMDA 1/2D (Rattus norvegicus). Kind of test: Partial agonist activity at recombinant rat GluN1/GluN2D NMDA receptor expressed in xenopus laevis oocytes by measuring maximum response by two-electrode voltage-clamp method relative to glycine. The settings on record: filed as partial agonist.
The target in test [13] is T3, Glutamate NMDA receptor; Grin1/Grin2c (Rattus norvegicus). The test can be described thus: Agonist activity at recombinant rat GluN1/GluN2C NMDA receptor expressed in xenopus laevis oocytes by measuring maximum response by two-electrode voltage-clamp method relative to glycine. The settings on record: filed as agonist.
For test [14], the target named is T2, Glutamate NMDA receptor; Grin1/Grin2a (Rattus norvegicus). The test can be described thus: Partial agonist activity at recombinant rat GluN1/GluN2A NMDA receptor expressed in xenopus laevis oocytes by measuring maximum response by two-electrode voltage-clamp method relative to glycine. The settings on record: filed as partial agonist.
For test [15], the target named is T7, Ionotropic glutamate receptor NMDA 1/2D. The test can be described thus: Inhibition of recombinant rat GluN1/GluN2D NMDA receptor expressed in xenopus laevis oocytes in presence of glycine and L-glutamate by two-electrode voltage-clamp method.
In test [16] the target is Ionotropic glutamate receptor NMDA 1/2C (Homo sapiens) (UniProt Q05586+Q14957). Kind of test: Agonist activity at GluN1/GluN2C (unknown origin) expressed in xenopus laevis oocytes by measuring maximum response by two-electrode voltage-clamp method relative to glycine.
Test [17] has as its target T1, Glutamate NMDA receptor; Grin1/Grin2b (Rattus norvegicus). The test can be described thus: Agonist activity at recombinant rat GluN1/GluN2B NMDA receptor expressed in xenopus laevis oocytes by measuring maximum response by two-electrode voltage-clamp method relative to glycine. The settings on record: filed as agonist.

pEC50, pIC50: −log10 of the molar value. Some results are limits rather than exact numbers.

Regarding `N[C@H](CNC(=O)c1ccc(-c2ccccc2)s1)C(=O)O`, the Activity in [1] was under 5%. Besides, the Rmax in test [2] is 137%; in test [3], 395%; in test [5], 20%; in test [9], 3%; in [12] it was 43%; in test [13] it was 326%. The Rmax in [14] turned out to be 69%. For the same compound, the pEC50 was 5.64 in test [4], 6.19 in [8] and 5.49 in test [10]. In addition, the pIC50 in test [6] is 5.41; in test [7], 5.68; in test [11], 5.72.

As for `CCc1ccccc1-c1ccc(C(=O)NC[C@@H](N)C(=O)O)o1`, the Rmax in test [2] is 77%; in test [3] it was 65%; in test [5] it was 7%; in test [9], 2%. The pIC50 in [6] is 5.96; in test [7] it was 6.82; in test [15], 5.89; in [11], 6.27.

In test [16], `N[C@H](CNC(=O)c1cc2c(Cl)ccc(Cl)c2[nH]1)C(=O)O` had an Rmax of 38%.

As to `NCC(=O)O`, the Rmax in test [17], in test [12], in test [13] and in [14] was 100% each time.
